According to paper PMC2832585 (Bioorganic & medicinal chemistry, 2009):
Read-outs that look alike come from different tables or passages of the source.

Experiments:
human β2-AR = human β2-AR (Homo sapiens, UniProt P07550); assay: β2-AR binding, [3H]CGP-12177 displacement on HEK cell membranes; conditions: relative to (R,R)-1 or (R,S)-1
[1] = system: single ventricular myocytes; assay: Cardiomyocyte contractility model; assay type: cell-based, rat
β1-AR = β1-AR (Rattus norvegicus, UniProt P18090); assay: β1-AR binding, [3H]CGP-12177 displacement on rat cortical membranes
[2] = system: single ventricular myocytes; conditions: read-out: EC50(cardio); previous data; ref [10]; cited from earlier work

human β2-AR, sequence (P07550 whole entry): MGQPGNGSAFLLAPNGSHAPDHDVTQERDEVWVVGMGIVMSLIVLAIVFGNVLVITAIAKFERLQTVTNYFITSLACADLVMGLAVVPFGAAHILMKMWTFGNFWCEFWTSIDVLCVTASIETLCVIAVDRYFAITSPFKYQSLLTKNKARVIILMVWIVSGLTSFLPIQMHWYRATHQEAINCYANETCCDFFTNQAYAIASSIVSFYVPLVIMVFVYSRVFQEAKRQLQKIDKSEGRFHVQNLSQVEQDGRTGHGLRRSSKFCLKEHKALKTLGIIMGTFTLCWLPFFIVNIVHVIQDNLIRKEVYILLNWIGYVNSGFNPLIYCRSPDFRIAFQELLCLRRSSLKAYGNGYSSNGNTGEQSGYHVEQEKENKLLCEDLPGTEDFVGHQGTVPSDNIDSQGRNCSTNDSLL
β1-AR, sequence (P18090 whole entry): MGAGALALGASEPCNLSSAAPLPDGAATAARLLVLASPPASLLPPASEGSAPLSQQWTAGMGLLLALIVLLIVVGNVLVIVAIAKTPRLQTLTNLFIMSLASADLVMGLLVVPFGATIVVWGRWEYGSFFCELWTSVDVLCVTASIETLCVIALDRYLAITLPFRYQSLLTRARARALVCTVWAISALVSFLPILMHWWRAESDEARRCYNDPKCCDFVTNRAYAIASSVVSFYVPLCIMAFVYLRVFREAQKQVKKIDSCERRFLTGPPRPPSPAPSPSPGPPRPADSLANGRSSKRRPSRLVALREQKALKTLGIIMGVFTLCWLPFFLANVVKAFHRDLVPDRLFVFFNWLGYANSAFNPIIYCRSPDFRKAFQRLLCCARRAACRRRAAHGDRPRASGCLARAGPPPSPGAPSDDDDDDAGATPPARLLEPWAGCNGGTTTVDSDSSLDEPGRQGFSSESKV

## CC[C@@H](Cc1ccc(O)cc1)NC[C@H](O)c1cc(O)cc(O)c1 (racemic) [(R,S)-52]
Human β2-AR
  Ki(β2-AR) fold greater than corresponding isomer of 1: 1.5 fold

## C[C@H](Cc1ccc(O)cc1)NC[C@H](O)c1cc(O)cc(O)c1 [(R,R)-1, (R,R)-fenoterol]
[1]; read-out: EC50cardio, cardiomyocyte contractility
  EC50: 0.073 ± 0.018 µM

## CC[C@H](Cc1ccc(O)cc1)NC[C@H](O)c1cc(O)cc(O)c1 [(R,R)-52, (R,R-(−)-5-(1-Hydroxy-2-(1-hydroxyphenyl)butan-2-ylamino)ethyl) benzene-1,3-diol]
Human β2-AR
  Ki(β2-AR) fold greater than corresponding isomer of 1: ~ 4 fold
[1]; cardiomyocyte contractility model, data not shown
  antagonism of the activity of zinterol: did not antagonize
[1]; initial data, data not shown, indicates activation of both GS and Gi proteins
  sensitivity of cardiomyocyte contractility activity to pertussis toxin: sensitive to pertussis toxin
β1-AR
  Ki(β1-AR) of (R,R)-isomer fold larger than (R,S)-isomer: 4 fold
β1-AR; relative to (R,R)-1 or (R,S)-1
  Ki(β1-AR) fold higher than corresponding isomer of 1: 28 fold

## C[C@H](Cc1ccc(O)cc1)NC[C@@H](O)c1cc(O)cc(O)c1 [(S,R)-1]
[2]
  EC50: 2.34 µM

## COc1ccc(C[C@@H](C)NC[C@@H](O)c2cc(O)cc(O)c2)cc1 [(S,R)-2]
[2]
  EC50: 3.16 µM
